Reference: patent US5310752A, “Site specific alkylating agents” (priority 1986, dated 1994)
Values after ≈ are worked out from the molar mass of the structure shown. Counter-ions that a name gives are not always drawn. Like-named read-outs stand apart in the source and are kept apart here.

What was measured:
[1] = tested on: L1210/LPAM; test: in vitro cytotoxicity, L-PAM resistance leukemia cells (L1210/LPAM), 4 hours treatment; format: cell-based, murine; details: for IC50: Mus musculus, L1210/LPAM, read-out: ID50 L1210/LPAM
Description: (§1) The in vitro antitumor activity was evaluated by cytotoxicity studies carried out on murine L1210 leukemia cells, L-PAM resistance leukemia cells and P388 leukemia cells, as well as on HeLa cells. Cells were derived from in vivo tumors and established in cell culture. Cells were used until the tenth passage. Cytotoxicity was determined by counting surviving cells after 4 hours treatment and 48 hours growth in drug-free medium. For HeLa cells the colony inhibition test according to Cancer Chemother. Pharmacol. 1:249-254, 1978, was used. The percentage of cell growth in the treated cultures was compared with that of controls. ID50 values (doses inhibiting 50% of the cellular growth in respect to controls) were calculated on dose-response curves.
(§2) ^1) Cytotoxicity evaluated after 4 hours treatment;

[2] = tested on: P388 leukemia cells; test: in vitro cytotoxicity, P388 leukemia cells, 48 hours treatment; format: cell-based, murine; details: for IC50: Mus musculus, read-out: ID50 P388
Description: as §1
^2) Cytotoxicity evaluated after 48 hours treatment;

[3] = tested on: HeLa cells; test: colony inhibition test, HeLa cells, 24 hours treatment; format: cell-based; details: for IC50: Homo sapiens, read-out: ID50 HeLa
Description: as §1
^3) Colony inhibition test carried out after 24 hours treatment.

[4] = tested on: L1210 leukemia cells; test: in vitro cytotoxicity, L1210 leukemia cells, 4 hours treatment; format: cell-based; details: murine L1210 leukemia cells, cytotoxicity evaluated after 4 hours treatment
Description: as §1, §2

[5] = tested on: DNA-AT sequences; details: reported in literature; cited from earlier work
[6] = L-PAM resistance leukemia cells, cytotoxicity evaluated after 4 hours treatment
[7] = P388 leukemia cells, cytotoxicity evaluated after 48 hours treatment
[8] = HeLa cells, colony inhibition test carried out after 24 hours treatment

Question: For `Cn1cc(NC(=O)c2cc(NC(=O)c3cc(NC(=O)c4ccc(N(CCCl)CCCl)cc4)cn3C)cn2C)cc1C(=O)NCCC(=N)N` [FCE 24517, β-[1-methyl-4-[1-methyl-4-[1-methyl-4-[4-N,N-bis(2-chloro-ethyl)aminobenzene-1-carboxamido]pyrrole-2-carboxamido]pyrrole-2-carboxamido]pyrrole-2-carboxamido]propionamidine hydrochloride], which IC50 ([1]; 4 h) is on record?
Answer: 0.43 mg/L

Question: What about the IC50 ([2]; P388, 48 h) of the same molecule?
Answer: 0.21 mg/L

Question: And the IC50 ([3]; HeLa, 24 h)?
Answer: 0.014 mg/L

Question: For `Cn1cc(NC(=O)c2cc(NC(=O)c3cc(NC(=O)c4cc(N(CCCl)CCCl)cs4)cn3C)cn2C)cc1C(=O)NCCC(=N)N` [FCE 24690, β-[1-methyl-4-[1-methyl-4-[1-methyl-4-[4-N,N-bis(2-chloro-ethyl)aminothiophen-2-carboxamido]pyrrole-2-carboxamido]pyrrole-2-carboxamido]pyrrole-2-carboxamido]propionamidine hydrochloride], which “ID50 L1210” value [4] is on record?
Answer: 1.365 mg/L

Question: And the “ID50 L1210/LPAM” value [1, 6]?
Answer: 0.985 mg/L

Question: And the “ID50 P388” value [2, 7]?
Answer: 0.22 mg/L

Question: And the “ID50 HeLa” value [3, 8]?
Answer: 0.037 mg/L

Question: Which IC50 ([4]; Mus musculus, read-out: ID50 L1210) does the source give for `Cn1cc(NC(=O)c2cc(NC(=O)c3cc(NC=O)cn3C)cn2C)cc1C(=O)NCCC(=N)N` [distamycin A, reference compound] here?
Answer: 198 mg/L (≈ 411 µM)

Question: And the IC50 [1, 6]?
Answer: 136 mg/L (≈ 282 µM)

Question: And the IC50 [2, 7]?
Answer: 25 mg/L (≈ 51.9 µM)

Question: What about the IC50 [3, 8] of the same molecule?
Answer: 3.9 mg/L (≈ 8.1 µM)

Question: What about the “interaction with DNA-AT sequences” value [5] of the same molecule?
Answer: interact reversibly and selectively with DNA-AT sequences interfering with both replication and trascription
